Measurements as given in US20250288543A1, “METHODS OF ENHANCING BENEFICIAL SHORT-CHAIN AND MEDIUM-CHAIN FATTY ACIDS PRODUCTION BY GUT MICROBIOME” (Arizona Board of Regents on Behalf of Arizona State …, priority 2024, published 2025).

Key:
[1] = mechanism related to vagal afferent; cited from earlier work
human colon microbiome = assay: In vitro bioreactors inoculated with human feces: chain elongation of acetate with ethanol or lactate to butyrate and caproate; assay type: cell-based; conditions: for Methane concentrations: bioreactor headspace, over 7 days, FIG. 4; for Production of MCFAs: pH 6.5 (descending colon), higher concentrations; for SCFA and MCFA production: varied conditions of the large intestine (pH 5.5 and 6.5), FIGS. 6A-6P
From the text: In microbial chain elongation, acetate, an abundant short-chain fatty acid in the colon, is elongated via reverse β-oxidation using a more reduced compound, such as ethanol or lactate to butyrate, caproate, and caprylate (C8). FIG. 1 depicts known microbial pathways for production of butyrate in the human colon. FIG. 2 depicts a proposed pathway for production of butyrate (and caproate). In vitro bioreactors were setup using feces composited from multiple human donors. Gas composition in the bioreactors' headspace was analyzed for H2, CO2, and CH4 using gas chromatography (GC). The concentrations of volatile fatty acids (VFAs), lactate, ethanol, were measured using high performance liquid chromatography (HPLC). 16S rRNA gene from Bacteria and Archaea was sequenced using the PacBio. The ability of the human colon microbiome to carry out chain elongation reactions was probed in bioreactor experiments. Bioreactors consisted of 120 mL glass serum bottles containing 50 mL of reduced anaerobic mineral medium prepared using the Hungate technique. The medium contained the following stock solutions per liter: 10 mL of salts, 1 mL of trace element A, 1 mL of trace element B, and 1 mL of vitamin mix. Sodium sulfide nonahydrate (0.2 mM) and L-cysteine (0.4 mM) were used as reducing agents. The medium was buffered with 15 mM 4-(2-hydroxyethyl)-1-piperazineethanesulfonic acid (HEPES) and 15 mM sodium bicarbonate. The medium pH was adjusted to 5.5 or 6.5 using a 10 N NaOH solution. The medium was bottled using a gas composition of 20% CO2 and 80% N2. The experimental conditions and controls are shown in Table 1 and were tested in triplicate. The tested concentrations of short-chain fatty acids (60 mM acetate, 20 mM propionate, 20 mM butyrate) are within the typical range detected in the human colon. For ethanol and lactate (electron donors in chain elongation), we tested 4 mM, a low but physiological relevant concentration and a high concentration of 40 mM. The high concentration of ethanol (40 mM) was selected based on existing chain elongation literature (Yin et al. 2017; Coma et al. 2016; […], and Buisman 2008; Robles et al. 2021; Joshi et al. 2021) and was strategically employed to enhance the activity of putative chain-elongating microorganisms. […] The slurry was prepared by mixing one-part reduced anaerobic mineral medium and one-part feces from a composite sample containing fecal samples from multiple healthy donors as described in the Supporting Information. In one condition, the fecal slurry was filtered through a 200 μm filter before inoculation. In condition with 60 mM acetate+40 mM ethanol+MCE culture at pH 6.5, a chain elongation culture derived from soil (Joshi et al. 2021) was also inoculated. The pH was measured using 0.5 mL samples using an OrionTM Versa Star ProTM Benchtop pH Meter (Thermo Scientific, Waltham, MA, USA) equipped with an Orion economy series pH electrode. The pH meter was calibrated with Orion pH 4.01, 7.00, and 10.01 standard solutions. Samples for HPLC consisted of 0.5 mL of supernatant from bioreactors filtered through a 0.2 μm PDVF filter (MDI Membrane Technologies, Harrisburg, PA, USA). The concentrations of formate, acetate, propionate, isobutyrate, butyrate, isovalerate, valerate, isocaproate, caproate, heptanoate, lactate, ethanol, butanol, and hexanol were determined using a high-performance liquid chromatograph (HPLC, Agilent, Santa Clara, CA, USA) with a photodiode array detector (DAD) set at 210 nm and a refractive index detector (RID). The HPLC was fitted with an Aminex HPX-87H column 300×7.8 mm (Bio-Rad Laboratories, Hercules, CA, USA) and operated with an eluent of 2.5 mM H2SO4 at a flow rate of 0.6 mL per minute for a duration of 80 minutes. The oven temperature was constant at […]. The calibration range for fatty acids was 0.25-10 mM, and the calibration range for the alcohols was 2.5-50 mM. […]

[2] = rat model of diabetes, hexanoate as sole FA source; cited from earlier work
[3] = physiologically relevant concentration of ethanol and lactate, FIGS. 5A and 5B

Row | SMILES | Efficacy in suppressing food intake (rank order) [1] | Methane concentrations (human colon microbiome) | Production of MCFAs (human colon microbiome) | Butyrate production via chain elongation (human colon microbiome; [3]) | SCFA and MCFA production (human colon microbiome) | further results
1 | CCC(=O)O [propionate] | butyrate>propionate>acetate | – | – | – | – | –
2 | CCO [ethanol] | – | higher at higher concentrations | significant increase | occurred | successfully increases | Conversion of acetate and ethanol to butyrate and caproate via chain elongation, time of occurrence (human colon microbiome; acetate + ethanol, fecal bioreactors, FIGS. 3A and 3B): within one day; Chain elongation activity with filtered feces (human colon microbiome; acetate + ethanol, feces filtered to remove larger particles, FIGS. 3C and 3D): did not affect the chain elongation activity; Caproate production (human colon microbiome; [3]): caproate was produced only when ethanol was the electron donor
3 | CC(=O)O [acetate] | butyrate>propionate>acetate | – | – | – | – | –
4 | CCCCCC(=O)O [caproic, caproic acid] | – | – | – | – | – | Contractile function of hearts perfused with glucose alone [2]: normalized contractile function
5 | CC(O)C(=O)O (stereo not shown) [lactate] | – | higher at higher concentrations | significant increase | occurred | successfully increases | Metabolites produced with lactate as the electron donor (human colon microbiome; acetate + lactate, FIG. 3B): metabolic shift was observed towards propionate and butyrate production; Production of butyrate and other SCFAs via chain elongation (human colon microbiome; pH 5.5 (ascending colon)): a better substrate
